IC50 data for one molecule are collected here from US8551980B2, “Substituted triazolopyridines” (Bayer Intellectual Property GmbH, priority 2009, dated 2013).

The assay has as its target T1, human kinase Mps-1 (Homo sapiens, UniProt P33981).
T1 construct: N-terminally GST-tagged human full length recombinant Mps-1 kinase; GST (N); purchased Invitrogen, Karslruhe, Germany PV4071
T1 sequence (P33981 1-857): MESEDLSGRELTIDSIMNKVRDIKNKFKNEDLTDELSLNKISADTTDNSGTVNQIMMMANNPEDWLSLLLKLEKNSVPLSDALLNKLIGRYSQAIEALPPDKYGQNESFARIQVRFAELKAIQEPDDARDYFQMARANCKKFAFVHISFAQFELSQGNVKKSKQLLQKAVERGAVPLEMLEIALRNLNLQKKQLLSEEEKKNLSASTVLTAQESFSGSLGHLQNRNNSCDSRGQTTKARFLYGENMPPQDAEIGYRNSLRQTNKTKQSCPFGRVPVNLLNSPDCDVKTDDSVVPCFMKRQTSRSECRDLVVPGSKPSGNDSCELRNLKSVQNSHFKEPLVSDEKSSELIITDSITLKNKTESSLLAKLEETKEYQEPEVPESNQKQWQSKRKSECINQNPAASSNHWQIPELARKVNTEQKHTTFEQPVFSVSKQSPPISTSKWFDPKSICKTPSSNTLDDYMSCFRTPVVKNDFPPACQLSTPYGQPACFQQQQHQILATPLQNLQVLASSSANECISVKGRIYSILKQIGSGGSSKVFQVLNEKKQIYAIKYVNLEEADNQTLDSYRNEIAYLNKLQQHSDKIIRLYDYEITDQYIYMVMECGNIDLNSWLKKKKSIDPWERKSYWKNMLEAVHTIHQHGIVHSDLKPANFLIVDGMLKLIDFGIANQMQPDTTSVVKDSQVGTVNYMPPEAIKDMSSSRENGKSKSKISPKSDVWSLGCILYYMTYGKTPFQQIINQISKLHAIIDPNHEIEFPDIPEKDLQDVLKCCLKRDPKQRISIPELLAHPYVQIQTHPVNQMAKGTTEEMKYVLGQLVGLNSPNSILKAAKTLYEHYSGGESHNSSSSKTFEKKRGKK
As to the kind of experiment: Mps-1 kinase assay (TR-FRET). Conditions: N-terminally GST-tagged human full length recombinant Mps-1; 10 μM ATP; 1 μM peptide substrate; 60 min at 22° C.; read-out: MPS1 Inhibition, IC50 in M. It is filed as biochemical. The protocol: The human kinase Mps-1 phosphorylates a biotinylated substrate peptide. Detection of the phosphorylated product is achieved by time-resolved fluorescence resonance energy transfer (TR-FRET) from Europium-labelled anti-phospho-Serine/Threonine antibody as donor to streptavidin labelled with cross-linked allophycocyanin (SA-XLent) as acceptor. Compounds are tested for their inhibition of the kinase activity.
N-terminally GST-tagged human full length recombinant Mps-1 kinase (purchased from Invitrogen, Karslruhe, Germany, cat. no PV4071) was used. […]
The resulting mixture was incubated 1 h at 22° C. to allow the binding of the phosphorylated peptide to the anti-phospho(Ser/Thr)-Europium-antibody. Subsequently the amount of phosphorylated substrate was evaluated by measurement of the resonance energy transfer from the Europium-labelled anti-phospho(Ser/Thr) antibody to the Streptavidin-XLent. Therefore, the fluorescence emissions at 620 nm and 665 nm after excitation at 350 nm was measured in a Viewlux TR-FRET reader (PerkinElmer LAS, Rodgau-Jügesheim, Germany). The “blank-corrected normalized ratio” (a Viewlux specific readout, similar to the traditional ratio of the emissions at 665 nm and at 622 nm, in which blank and Eu-donor crosstalk are subtracted from the 665 nm signal before the ratio is calculated) was taken as the measure for the amount of phosphorylated substrate. […]
A general note: TR-FRET usually uses a lanthanide donor and a delayed reading to cut background.

SMILES strings stand for the structures.

As a reminder, the IC50 is the concentration needed to halve the response being measured.

With `Cc1c(-c2ccc(NC(=O)Cc3ccccc3)cc2)ccc2nc(Nc3ccccc3C#N)nn12` [Example 1.1, N-(4-{2-[(2-cyanophenyl)amino]-5-methyl[1,2,4]triazolo[1,5-a]pyridin-6-yl}phenyl)-2-phenylacetamide], the IC50 is 1.8 nM.
